Measured values published in ChEMBL document CHEMBL1201862, “PubChem BioAssay data set” (2004).
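Exposure lasted 48 hours, with cells grown in 96-well plates and compounds tested at five concentrations. At the GI50, growth is halved.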 Calls of active or inactive are those of the source. No stated cut-off is given here; in the data, active = GI50 up to about 1.1 µM and inactive = higher. Square brackets hold non-standard residues; d marks the D form. Peptide text beside a SMILES is read from it. * marks the point of attachment. Phe(4-NO2) = N[CH](Cc1ccc([N+](=O)[O-])cc1)C(=O)O; Boc = CC(C)(C)OC(=O)*

Experiments:
Assay in all cases: inhibition of tumour cell growth, NCI panel, 48 h
HL-60 = system: HL-60
SN12C = system: SN12C
UO-31 = system: UO-31
NCI-H522 = system: NCI-H522
M14 = system: M14
Hs-578T = system: Hs-578T
NCI-H226 = system: NCI-H226
PC-3 = system: PC-3
MCF7 = system: MCF7
HT-29 = system: HT-29
OVCAR-5 = system: OVCAR-5
HCT-116 = system: HCT-116
U-251 = system: U-251
ACHN = system: ACHN
SK-MEL-2 = system: SK-MEL-2
TK-10 = system: TK-10
SK-MEL-5 = system: SK-MEL-5
DU-145 = system: DU-145
SK-MEL-28 = system: SK-MEL-28
HOP-62 = system: HOP-62

Row | SMILES | GI50 (HL-60) | GI50 (SN12C) | GI50 (UO-31) | GI50 (NCI-H522) | GI50 (M14) | GI50 (Hs-578T) | GI50 (NCI-H226) | GI50 (PC-3) | GI50 (MCF7) | GI50 (HT-29) | GI50 (OVCAR-5) | GI50 (HCT-116) | GI50 (U-251) | GI50 (ACHN) | GI50 (SK-MEL-2) | GI50 (TK-10) | GI50 (SK-MEL-5) | GI50 (DU-145) | GI50 (SK-MEL-28) | GI50 (HOP-62)
1 | COc1ccc(NC(C)=O)c(C(O)CCNC(C)=O)c1 (centres undefined) | > 100 µM (inactive) | > 100 µM (inactive) | > 100 µM (inactive) | > 100 µM (inactive) | > 100 µM (inactive) | > 100 µM (inactive) | > 100 µM (inactive) | > 100 µM (inactive) | > 100 µM (inactive) | > 100 µM (inactive) | > 100 µM (inactive) | > 100 µM (inactive) | > 100 µM (inactive) | > 100 µM (inactive) | > 100 µM (inactive) | > 100 µM (inactive) | > 100 µM (inactive) | > 100 µM (inactive) |  | 
2 | O=C1c2ccccc2C(=O)N1c1ccc(OCCN2CCCCC2)cc1 | > 100 µM (inactive) | > 100 µM (inactive) |  | > 100 µM (inactive) | > 100 µM (inactive) | > 100 µM (inactive) | > 100 µM (inactive) | > 100 µM (inactive) | > 100 µM (inactive) | > 100 µM (inactive) | > 100 µM (inactive) | > 100 µM (inactive) | > 100 µM (inactive) | > 100 µM (inactive) | > 100 µM (inactive) | > 100 µM (inactive) | > 100 µM (inactive) | > 100 µM (inactive) | > 100 µM (inactive) | > 100 µM (inactive)
3 | CC1(C)C(=O)C2(C#N)CCC1C2 (centres undefined) | > 100 µM (inactive) | > 100 µM (inactive) | > 100 µM (inactive) |  | > 100 µM (inactive) | > 100 µM (inactive) | > 100 µM (inactive) | > 100 µM (inactive) | > 100 µM (inactive) | > 100 µM (inactive) | > 100 µM (inactive) | > 100 µM (inactive) | > 100 µM (inactive) | > 100 µM (inactive) | > 100 µM (inactive) | > 100 µM (inactive) | > 100 µM (inactive) | > 100 µM (inactive) | > 100 µM (inactive) | > 100 µM (inactive)
4 | Nc1ccccc1C(=O)CCc1c[nH]c2ccccc12 | > 100 µM (inactive) | > 100 µM (inactive) | 5.4 µM (inactive) | > 100 µM (inactive) | > 100 µM (inactive) | 24.2 µM (inactive) | > 100 µM (inactive) | > 100 µM (inactive) | > 100 µM (inactive) | > 100 µM (inactive) | > 100 µM (inactive) | > 100 µM (inactive) | 27.4 µM (inactive) | 53.7 µM (inactive) | > 100 µM (inactive) | > 100 µM (inactive) |  | > 100 µM (inactive) | > 100 µM (inactive) | 32.2 µM (inactive)
5 | C/C(=C/CC[C@](C)(OC1OC(CO)C(O)C(O)C1OC1OC(C)C(O)C(O)C1O)[C@H]1CC[C@]2(C)[C@@H]1CC[C@@H]1[C@@]3(C)CC[C@H](O)C(C)(C)[C@@H]3C[C@H](O)[C@]12C)CO (some centres undefined) | > 100 µM (inactive) | > 100 µM (inactive) | > 100 µM (inactive) | > 100 µM (inactive) | > 100 µM (inactive) | > 100 µM (inactive) | > 100 µM (inactive) | > 100 µM (inactive) | > 100 µM (inactive) | > 100 µM (inactive) | > 100 µM (inactive) | > 100 µM (inactive) | > 100 µM (inactive) | > 100 µM (inactive) |  | > 100 µM (inactive) | > 100 µM (inactive) | > 100 µM (inactive) | > 100 µM (inactive) | > 100 µM (inactive)
6 | C=CCn1c(S)nnc1C12CC3CC(CC(C3)C1)C2 | 17.2 µM (inactive) | > 100 µM (inactive) | 33 µM (inactive) | 25 µM (inactive) | 61 µM (inactive) | > 100 µM (inactive) | > 100 µM (inactive) | 32.7 µM (inactive) | 42.9 µM (inactive) | 50.1 µM (inactive) | > 100 µM (inactive) | 46.1 µM (inactive) | 86.9 µM (inactive) | 54.3 µM (inactive) | 67.8 µM (inactive) | 50.7 µM (inactive) |  | 69.3 µM (inactive) | > 100 µM (inactive) | > 100 µM (inactive)
7 | O[C@@H]1C[C@@H]2N[C@@](O)(C[C@@H]2O)[C@H]1O | > 100 µM (inactive) | > 100 µM (inactive) | > 100 µM (inactive) | > 100 µM (inactive) | > 100 µM (inactive) | > 100 µM (inactive) | > 100 µM (inactive) | > 100 µM (inactive) | > 100 µM (inactive) | > 100 µM (inactive) | > 100 µM (inactive) | > 100 µM (inactive) | > 100 µM (inactive) | > 100 µM (inactive) |  | > 100 µM (inactive) | > 100 µM (inactive) | > 100 µM (inactive) | > 100 µM (inactive) | > 100 µM (inactive)
8 | CCCCn1c(C)c(C(=O)OCC)s/c1=N/Nc1nc2ccccc2nc1-c1ccccc1 | 17.9 µM (inactive) | > 100 µM (inactive) |  | 41.2 µM (inactive) | > 100 µM (inactive) | 26.2 µM (inactive) | 78.5 µM (inactive) | 30.9 µM (inactive) | 82.4 µM (inactive) | > 100 µM (inactive) | > 100 µM (inactive) | > 100 µM (inactive) | 43.6 µM (inactive) | 78.3 µM (inactive) | > 100 µM (inactive) | > 100 µM (inactive) | 46.8 µM (inactive) | 37.7 µM (inactive) | > 100 µM (inactive) | 30.8 µM (inactive)
9 | CC1=CC(=O)/C(=C/n2c(=S)[nH]c3ccccc32)C(=O)O1 | < 0.01 µM (active) | > 100 µM (inactive) | > 100 µM (inactive) | > 100 µM (inactive) | > 100 µM (inactive) | 72.8 µM (inactive) | > 100 µM (inactive) | > 100 µM (inactive) | > 100 µM (inactive) | > 100 µM (inactive) | > 100 µM (inactive) | > 100 µM (inactive) | > 100 µM (inactive) | > 100 µM (inactive) | > 100 µM (inactive) | > 100 µM (inactive) |  | > 100 µM (inactive) |  | > 100 µM (inactive)
10 | CCOC(=O)C(Cc1ccccc1)(Cc1ccc(O)cn1)NC(=O)c1ccccc1 (centres undefined) | 21.7 µM (inactive) |  | 29.6 µM (inactive) | 15.6 µM (inactive) | 17.9 µM (inactive) | 16.3 µM (inactive) | 29.2 µM (inactive) | 18.5 µM (inactive) | 22.3 µM (inactive) | 26.5 µM (inactive) | 27.3 µM (inactive) | 24.7 µM (inactive) | 21.7 µM (inactive) | 35.8 µM (inactive) | 20.2 µM (inactive) | 32.1 µM (inactive) | 16.5 µM (inactive) | 27.5 µM (inactive) | 36.5 µM (inactive) | 32.2 µM (inactive)
11 | Cc1ccc(Nc2nc(=O)[nH]c(=O)[nH]2)cc1N | > 100 µM (inactive) | > 100 µM (inactive) |  | > 100 µM (inactive) | > 100 µM (inactive) | > 100 µM (inactive) | > 100 µM (inactive) | > 100 µM (inactive) | > 100 µM (inactive) | > 100 µM (inactive) | > 100 µM (inactive) | > 100 µM (inactive) | 27.5 µM (inactive) | > 100 µM (inactive) | > 100 µM (inactive) | > 100 µM (inactive) | > 100 µM (inactive) | > 100 µM (inactive) | 32.7 µM (inactive) | > 100 µM (inactive)
12 | CNC(=O)CCC(NC(=O)OC(C)(C)C)C(=O)NC(Cc1ccc([N+](=O)[O-])cc1)C(=O)NCC(=O)NC (centres undefined) (Boc-Glu(NHMe)-[Phe(4-NO2)]-Gly-NHMe; configuration not given here) | > 100 µM (inactive) | > 100 µM (inactive) | > 100 µM (inactive) | > 100 µM (inactive) | > 100 µM (inactive) | > 100 µM (inactive) | > 100 µM (inactive) | > 100 µM (inactive) | > 100 µM (inactive) | > 100 µM (inactive) | > 100 µM (inactive) | > 100 µM (inactive) | > 100 µM (inactive) | > 100 µM (inactive) |  | > 100 µM (inactive) | > 100 µM (inactive) | > 100 µM (inactive) | > 100 µM (inactive) | > 100 µM (inactive)
13 | Cc1cc(C)n(-c2nc(C)c(CCO)c(=O)[nH]2)n1 | > 100 µM (inactive) | > 100 µM (inactive) | > 100 µM (inactive) | > 100 µM (inactive) | > 100 µM (inactive) | > 100 µM (inactive) | > 100 µM (inactive) | > 100 µM (inactive) | > 100 µM (inactive) | > 100 µM (inactive) | > 100 µM (inactive) | > 100 µM (inactive) | > 100 µM (inactive) | > 100 µM (inactive) |  | > 100 µM (inactive) | > 100 µM (inactive) | > 100 µM (inactive) | > 100 µM (inactive) | > 100 µM (inactive)
14 | c1ccc(CSC2(SCc3ccccc3)CCCCC2)cc1 | > 10 µM (inactive) | > 10 µM (inactive) | > 10 µM (inactive) | > 10 µM (inactive) | > 10 µM (inactive) | > 10 µM (inactive) | > 10 µM (inactive) | > 10 µM (inactive) | > 10 µM (inactive) | > 10 µM (inactive) |  | > 10 µM (inactive) | > 10 µM (inactive) | > 10 µM (inactive) | > 10 µM (inactive) | > 10 µM (inactive) | > 10 µM (inactive) | > 10 µM (inactive) | > 10 µM (inactive) | > 10 µM (inactive)
